Results taken from PubChem BioAssay AID330 (DTP/NCI, 2004).
Several values for one entry are separate records, joined by “and”; a condition that tells them apart may be missing. Equal values may be shown once. Inconclusive results and toxic doses are left out. Rule for the calls: active = survival T/C of 150% or more; inactive = T/C below 125% in these data. Square brackets hold non-standard residues; d marks the D form. Peptide text beside a SMILES is read from it. ξ: configuration not given here. ξY = NC(Cc1ccc(O)cc1)C(=O)O

Tested on: P388 leukemia ip, CD2F1 mice, survival T/C
Assay: NCI In Vivo Anticancer Drug Screen. Data for tumor model P388 Leukemia (intraperitoneal) in CD2F1 (CDF1) mice
Conditions: endpoint: median survival time, higher = longer survival
How it was run: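 Mice carrying the transplanted tumor received test compound or vehicle. Survival was recorded in each group, and the value is the treated-group measurement divided by that of the vehicle-treated control group.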

[1] = dose: 50.0 mg/kg/injection, schedule: Q04DX003 (ip), vehicle: saline with Tween-80
[2] = dose: 100.0 mg/kg/injection, schedule: Q04DX003 (ip), vehicle: saline with Tween-80
[3] = dose: 200.0 mg/kg/injection, schedule: Q04DX003 (ip), vehicle: saline with Tween-80
[4] = dose: 50.0 mg/kg/injection, schedule: Q01DX005 (ip), vehicle: Klucel (hydroxypropylcellulose) (HPC)
[5] = dose: 100.0 mg/kg/injection, schedule: Q01DX005 (ip), vehicle: Klucel (hydroxypropylcellulose) (HPC)
[6] = dose: 200.0 mg/kg/injection, schedule: Q01DX005 (ip), vehicle: Klucel (hydroxypropylcellulose) (HPC)
[7] = dose: 50.0 mg/kg/injection, schedule: Q01DX009 (ip), vehicle: Klucel (hydroxypropylcellulose) (HPC)
[8] = dose: 100.0 mg/kg/injection, schedule: Q01DX009 (ip), vehicle: Klucel (hydroxypropylcellulose) (HPC)
[9] = dose: 60.0 mg/kg/injection, schedule: Q01DX005 (ip), vehicle: saline with Tween-80
[10] = dose: 120.0 mg/kg/injection, schedule: Q01DX005 (ip), vehicle: saline with Tween-80
[11] = dose: 240.0 mg/kg/injection, schedule: Q01DX005 (ip), vehicle: saline with Tween-80
[12] = dose: 60.0 mg/kg/injection, schedule: Q01DX005 (ip), vehicle: Klucel (hydroxypropylcellulose) (HPC)

Measured: T/C

CC[N+](C)(CC)CCNc1cc2c(c3c(=O)c4ccccc4sc13)CCCC2
inactive: dose: 25.0 mg/kg/injection, schedule: Q01DX005 (ip), vehicle: distilled water + Tween-80 119 % of control | dose: 50.0 mg/kg/injection, schedule: Q01DX005 (ip), vehicle: distilled water + Tween-80 106 % of control | dose: 100.0 mg/kg/injection, schedule: Q01DX005 (ip), vehicle: distilled water + Tween-80 101 % of control

O=[N+]([O-])c1ccc(N/N=C(\C(=N/Nc2ccc([N+](=O)[O-])cc2[N+](=O)[O-])c2ccccc2)c2ccccc2)c([N+](=O)[O-])c1
inactive: [1] 103 % of control | [2] 91 % of control | [3] 91 % of control

CNc1c[nH]c(=O)[nH]c1=O
inactive: [4] 108 % of control | [5] 105 % of control | [6] 96 % of control

CCCNC(=O)NNC(=O)c1ccc(NC(=O)NCCC)cc1
inactive: [7] 101 % of control | [8] 102 % of control | dose: 200.0 mg/kg/injection, schedule: Q01DX009 (ip), vehicle: Klucel (hydroxypropylcellulose) (HPC) 89 % of control

CC(C)(C)c1cc(C(c2ccc3c(c2)OCO3)N2CCOCC2)c(O)c(C(C)(C)C)c1 (stereo unspecified)
inactive: [9] 100 % of control | [10] 100 % of control | [11] 100 % of control

CC(C)CC(=O)OCC1=CCN2CC[C@@H](O)[C@@H]12
inactive: dose: 15.0 mg/kg/injection, schedule: Q01DX009 (ip), vehicle: saline + alcohol 105 % of control | dose: 30.0 mg/kg/injection, schedule: Q01DX009 (ip), vehicle: saline + alcohol 109 % of control | dose: 60.0 mg/kg/injection, schedule: Q01DX009 (ip), vehicle: saline + alcohol 105 % of control | dose: 120.0 mg/kg/injection, schedule: Q01DX009 (ip), vehicle: saline + alcohol 108 % of control | dose: 240.0 mg/kg/injection, schedule: Q01DX009 (ip), vehicle: saline + alcohol 108 % of control | dose: 480.0 mg/kg/injection, schedule: Q01DX009 (ip), vehicle: saline + alcohol 114 % of control

COc1cc(/C=C\C(=O)c2cccc(O)c(=O)c2)cc(OC)c1OC
inactive: [7] 112 % of control | [8] 87 % of control

CCN(C)N=Nc1ccc(C(N)=O)cc1
inactive: dose: 25.0 mg/kg/injection, schedule: Q01DX005 (ip), vehicle: Klucel (hydroxypropylcellulose) (HPC) 101 % of control and 105 % of control | [4] 95 % of control | [6] 89 % of control

O=C(Oc1ccc[nH]c1=O)c1ccccc1
inactive: dose: 37.5 mg/kg/injection, schedule: Q01DX009 (ip), vehicle: saline 108 % of control and 98 % of control | dose: 75.0 mg/kg/injection, schedule: Q01DX009 (ip), vehicle: saline 101 % of control and 105 % of control | dose: 150.0 mg/kg/injection, schedule: Q01DX009 (ip), vehicle: saline 107 % of control | dose: 300.0 mg/kg/injection, schedule: Q01DX009 (ip), vehicle: saline 101 % of control and 110 % of control | dose: 600.0 mg/kg/injection, schedule: Q01DX009 (ip), vehicle: saline 101 % of control and 107 % of control

C=C(Br)C(=NC(C)(C)C)Nc1cccc(Cl)c1
inactive: [4] 102 % of control | [5] 107 % of control

O=P(CCCCBr)(NCc1ccccc1)c1ccccc1 (stereo unspecified)
inactive: dose: 100.0 mg/kg/injection, schedule: Q04DX003 (ip), vehicle: Klucel (hydroxypropylcellulose) (HPC) 105 % of control | dose: 200.0 mg/kg/injection, schedule: Q04DX003 (ip), vehicle: Klucel (hydroxypropylcellulose) (HPC) 117 % of control

CN1C(=O)C(Br)(Br)CC1c1cccnc1 (stereo unspecified)
inactive: [12] 101 % of control | dose: 120.0 mg/kg/injection, schedule: Q01DX005 (ip), vehicle: Klucel (hydroxypropylcellulose) (HPC) 109 % of control | dose: 240.0 mg/kg/injection, schedule: Q01DX005 (ip), vehicle: Klucel (hydroxypropylcellulose) (HPC) 100 % of control

Nc1[nH]c(=S)[nH]c(=O)c1N=Nc1ccccc1
inactive: dose: 100.0 mg/kg/injection, schedule: Q01DX001 (ip), vehicle: saline with Tween-80 98 % of control | dose: 200.0 mg/kg/injection, schedule: Q01DX001 (ip), vehicle: saline with Tween-80 102 % of control | dose: 400.0 mg/kg/injection, schedule: Q01DX001 (ip), vehicle: saline with Tween-80 117 % of control

CN1CCC/C1=C\C(=O)c1ccco1
inactive: dose: 15.0 mg/kg/injection, schedule: Q01DX005 (ip), vehicle: Klucel (hydroxypropylcellulose) (HPC) 100 % of control | dose: 30.0 mg/kg/injection, schedule: Q01DX005 (ip), vehicle: Klucel (hydroxypropylcellulose) (HPC) 103 % of control | [12] 109 % of control and 89 % of control

NCC(=O)NC(Cc1ccc(O)cc1)C(=O)NCC(=O)O (stereo unspecified) (H-Gly-[ξY]-Gly-OH)
inactive: [4] 99 % of control | [5] 98 % of control | [6] 98 % of control

Nc1cc(=O)c2n[nH]nc2[nH]1
inactive: [1] 100 % of control | [2] 108 % of control | [3] 108 % of control | dose: 400.0 mg/kg/injection, schedule: Q04DX003 (ip), vehicle: saline with Tween-80 107 % of control

O=C1CC23c4ccccc4N4C(=O)CC5OCC=C6CN1C2CC6C5C43 (stereo unspecified)
inactive: [9] 101 % of control | [10] 92 % of control | [11] 92 % of control

COC(=O)Nc1nc2ccc(CCC(=O)c3c(C)oc(C)c3-c3ccc(NC(C)=O)cc3)cc2[nH]1
inactive: [9] 99 % of control | [10] 99 % of control
